Source: patent US11439642B2 (Adverio Pharma GmbH, priority 2010, dated 2022)

Columns and labels:
[1] = molecular target: T1, recombinant guanylate cyclase reporter cell line (Rattus norvegicus, UniProt P19686+P20595); assay: Effect on a recombinant guanylate cyclase reporter cell line; assay type: cell-based
T1 construct: expressed in transfected cells
T1 sequence (P20595 1-619): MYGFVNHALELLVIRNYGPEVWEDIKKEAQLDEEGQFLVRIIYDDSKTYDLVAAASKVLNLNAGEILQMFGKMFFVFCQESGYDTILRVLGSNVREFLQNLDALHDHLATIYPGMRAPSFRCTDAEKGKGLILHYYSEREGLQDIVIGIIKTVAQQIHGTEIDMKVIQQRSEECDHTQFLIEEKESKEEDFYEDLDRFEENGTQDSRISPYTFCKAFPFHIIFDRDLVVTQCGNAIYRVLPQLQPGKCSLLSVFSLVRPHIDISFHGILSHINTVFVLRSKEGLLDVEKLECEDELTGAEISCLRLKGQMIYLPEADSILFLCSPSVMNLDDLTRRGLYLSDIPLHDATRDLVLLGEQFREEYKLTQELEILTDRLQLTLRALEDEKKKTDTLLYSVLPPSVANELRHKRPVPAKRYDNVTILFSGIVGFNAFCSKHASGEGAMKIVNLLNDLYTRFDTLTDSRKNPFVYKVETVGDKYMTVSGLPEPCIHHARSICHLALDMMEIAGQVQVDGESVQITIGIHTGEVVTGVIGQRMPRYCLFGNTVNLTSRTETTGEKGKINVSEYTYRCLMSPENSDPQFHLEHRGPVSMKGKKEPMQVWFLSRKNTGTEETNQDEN
T1 sequence (P19686 1-690): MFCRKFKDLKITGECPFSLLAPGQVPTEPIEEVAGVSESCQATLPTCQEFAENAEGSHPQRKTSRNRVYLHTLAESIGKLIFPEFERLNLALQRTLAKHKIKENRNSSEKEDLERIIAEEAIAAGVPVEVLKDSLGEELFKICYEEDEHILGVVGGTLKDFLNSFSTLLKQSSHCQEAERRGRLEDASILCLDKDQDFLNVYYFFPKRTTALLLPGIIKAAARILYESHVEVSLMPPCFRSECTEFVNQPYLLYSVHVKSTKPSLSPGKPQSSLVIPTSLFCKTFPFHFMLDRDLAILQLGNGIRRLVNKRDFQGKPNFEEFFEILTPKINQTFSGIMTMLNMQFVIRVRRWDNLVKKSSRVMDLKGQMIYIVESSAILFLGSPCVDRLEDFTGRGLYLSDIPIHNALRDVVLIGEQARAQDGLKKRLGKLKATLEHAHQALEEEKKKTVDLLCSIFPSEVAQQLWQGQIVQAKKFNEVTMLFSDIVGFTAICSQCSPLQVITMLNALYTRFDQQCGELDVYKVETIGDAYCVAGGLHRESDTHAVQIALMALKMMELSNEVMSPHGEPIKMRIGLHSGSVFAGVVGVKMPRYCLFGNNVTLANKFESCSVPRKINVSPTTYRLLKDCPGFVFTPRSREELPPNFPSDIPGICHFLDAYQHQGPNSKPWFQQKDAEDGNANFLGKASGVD
Procedure: The cellular activity of the compounds according to the invention is determined using a recombinant guanylate cyclase reporter cell line, as described in F. Wunder et al., Anal. Biochem. 339, 104-112 (2005).

rabbit aorta rings = assay: Vasorelaxant effect in vitro (phenylephrine-contracted aorta rings); conditions: Oryctolagus cuniculus, phenylephrine contraction, read-out: IC50 (concentration reducing height of phenylephrine contraction by 50%)
Procedure: Rabbits are stunned by a blow to the neck and exsanguinated. The aorta is removed, freed from adhering tissue and divided into rings of a width of 1.5 mm. The rings are placed individually under an initial tension in 5 ml organ baths with Krebs-Henseleit solution which is at 37° C., is gassed with carbogen and has the following composition (in each case mM): sodium chloride 119; potassium chloride: 4.8; calcium chloride dihydrate: 1; magnesium sulphate heptahydrate: 1.4; potassium dihydrogenphosphate: 1.2; sodium bicarbonate: 25; glucose: 10. The force of contraction is detected with Statham UC2 cells, amplified and digitized via A/D converters (DAS-1802 HC, Keithley Instruments, Munich) and recorded in parallel on chart recorders. To produce a contraction, phenylephrine is added to the bath cumulatively in increasing concentration. After several control cycles, the substance to be investigated is added in each further run in increasing dosage in each case, and the height of the contraction achieved is compared with the height of the contraction reached in the last preceding run. The concentration necessary to reduce the height of the control value by 50% is calculated from this (IC50 value). The standard administration volume is 5 μl and the proportion of DMSO in the bath solution corresponds to 0.1%.

| MEC (minimum effective concentration) [1] [µM] | IC50 (rabbit aorta rings) [µM] | SMILES |
| --- | --- | --- |
| 0.03 | 0.515 | COC(=O)N(CC(F)(F)F)c1c(N)nc(-c2nn(Cc3ccccc3F)c3ncc(F)cc23)nc1N [Example 3, Methyl {4,6-diamino-2-[5-fluoro-1-(2-fluorobenzyl)-1H-pyrazolo[3,4-b]pyridin-3-yl]pyrimidin-5-yl}(2,2,2-trifluoroethyl)carbamate] |
| 0.3 | 0.958 | COC(=O)Nc1c(N)nc(-c2nn(Cc3ccccc3F)c3ncc(F)cc23)nc1N [Example 1, Methyl {4,6-diamino-2-[5-fluoro-1-(2-fluorobenzyl)-1H-pyrazolo[3,4-b]pyridin-3-yl]pyrimidin-5-yl}carbamate] |
| 0.1 | 0.251 | COC(=O)N(C)c1c(N)nc(-c2nn(Cc3ccccc3F)c3ncc(F)cc23)nc1N [Example 2] |
